From patent publication US10539566B2, “Use of markers including filamin A in the diagnosis and treatment of prostate cancer” (Berg LLC, priority 2014, dated 2020)

What was measured:
Format in all cases: cell-based, human
[1] = system: LnCAP, DU145, and PC-3 cells; test: Quantitative RT-PCR of FLNA, FLNB and KRT19 expression after prostate-relevant stimuli; settings: 24 h, DU145, PC-3 cells
Method: Specifically, mRNA was prepared from LnCAP, DU145, and PC-3 cells exposed to hypoxia (1% oxygen; A), TNFα (10 ng/mL; B), or R1881 (1 nM; C) for 24 h. Expression of FLNA, FLNB, and KRT19 was assessed by quantitative RT-PCR, normalized to TBP, and compared to PSA. Values represent means+SEM, N=3. * p<0.05 compared to normoxia/control.

[2] = system: LnCAP cell line and PC3 cell line; test: Wet lab assays measuring mitochondrial ROS, ATP and caspase 3 activation; settings: LnCAP and PC3 cells treated with ubidecarenone
PC3 cells = test: Causal protein networks from 2D LC-MS proteomics of prostate cancer cells treated with ubidecarenone; settings: upon treatment with ubidecarenone
Text: An interrogative systems biology based discovery platform (i.e., Interrogative Platform Technology or a.k.a. Interrogative Biology™) disclosed in WO2012119129 (incorporated herein by reference), and shown schematically in FIG. 1, provides new mechanistic insights into understanding mitochondrial role in behavior of prostate cancer cells. The discovery platform involves discovery across a hierarchy of systems including in vitro human cell based models and human serum samples from prostate cancer patients and downstream data integration and mathematical modeling employing an Artificial Intelligence (AI) based informatic module. For cellular models, androgen sensitive LnCAP cell line and metastatic, androgen refractory PC3 cell line were treated with ubidecarenone (coenzyme Q10) in order to engage the mitochondrial machinery. Proteomic signatures were captured using a 2D LC-MS orbitrap technology. Total protein signatures were input to an AI based informatics module to generate causal protein networks (FIG. 2).
The keratin 8/15 association was lost upon treatment with ubidecarenone, and a direct association of keratins 7 and 15 was established (FIG. 3).

C[C@]1(O)CC[C@H]2[C@@H]3CCC4=CC(=O)CCC4=C3C=C[C@@]21C [R1881]
global regulation of FLNA, FLNB, and KRT19 expression (mRNA, normalized to TBP) ([1]; R1881 1 nM): remained unaltered

COC1=C(OC)C(=O)C(C/C=C(\C)CC/C=C(\C)CC/C=C(\C)CC/C=C(\C)CC/C=C(\C)CC/C=C(\C)CC/C=C(\C)CC/C=C(\C)CC/C=C(\C)CCC=C(C)C)=C(C)C1=O [ubidecarenone]
intracellular levels of mitochondrial ROS, ATP and caspase 3 activation [2]: confirmed changes in intracellular levels
direct association of keratins 7 and 15 in causal protein maps (PC3 cells): established
keratin 8/15 association in causal protein maps (PC3 cells): lost

TNFα
global regulation of FLNA, FLNB, and KRT19 expression (mRNA, normalized to TBP) ([1]; TNFα 10 ng/mL): remained unaltered
